Measured values published in patent US20230126447A1, “OCULAR DRUG DEPOT FOR COMPLEMENT-MEDIATED DISORDERS” (priority 2020, published 2023).

Assays:
[1] = QWBA tissue distribution of [14C] Compound 1, albino Wistar Han rats (PO); type: in vivo; conditions: albino male WH rats, 20 mg/kg PO
Method: This study was conducted to determine the tissue distribution of drug-related radioactivity following a single oral (PO) (20 mg/kg) or intravenous (IV) (5 mg/kg) administration of [^14C]
Ten adult male pigmented Long-Evans (LE) rats (Group 1), 1 adult male LE rat (Group 2), and 3 albino Wistar Han (WH) rats (Group 3) received a single oral 20 mg/kg (Groups 1 and 3) or IV 5 mg/kg (Group 2) dose of [^14C] […] The formulation was prepared at a target dose of 5 mg (IV) or 20 mg (PO) […]
The carcasses were frozen in hexane dry-ice and stored at or below −20° C. prior to processing for QWBA. Each carcass was embedded, cut into sagittal sections, and mounted for QWBA. […] The lower limit of quantitation was 0.105 μg equiv/g.

[2] = Ocular tissue and plasma pharmacokinetics, 50 mg/kg BID oral, Dutch Belted rabbits (Example 4/5); type: in vivo; conditions: DB rabbit; for Mean Choroid-RPE concentration / Mean Iris-Ciliary Body concentration / Mean plasma concentration / Mean retina concentration / Optic Nerve concentration / Vitreous concentration: 50 mg/kg BID oral; for Mean Choroid-RPE concentration / Mean Iris-Ciliary Body concentration / Mean plasma concentration / Mean retina concentration: 50 mg/kg
Method: Study design, including group designation and dose levels, are outlined in Table 15. […] Two Dutch Belted rabbits received vehicle only oral gavage doses for tolerability assessment. […] The dose volume was 5 mL/kg/dose for all groups. Safety was assessed with toxicological and ophthalmic examinations, including slit lamp biomicroscopy, indirect ophthalmoscopy, rebound tonometry, and ultrasonic corneal pachymetry.
For the pharmacokinetic determination, a single blood sample was taken from each rabbit from Groups 1 and 4 at one hour post-dose on Day 15, Group 2 at one hour post-dose on Day 8, and Group 3 at pre-dose, 1, 6, 24, 96, 168, and 240 hours post-dose on Day 15, with the eyes collected at the same time as blood sampling. Plasma, vitreous humor (VH), retina, choroid-retina pigmented epithelium (Choroid-RPE), optic nerve (ON), and iris-ciliary body (I-CB) were analyzed by LC-MS/MS to quantify test article concentrations. The lower limit of quantitation (LLOQ) in plasma and vitreous humor was 1.0 ng/mL. The LLOQ was 6.0 ng/g in retina, choroid-RPE, and I-CB and the optic nerve LLOQ was 15 ng/g, assuming tissue density of 1 g/mL where relevant. […]

[3] = Choroid-RPE, 50 mg/kg BID, Day 15
[4] = Iris-Ciliary Body, 50 mg/kg BID, Day 15
[5] = Optic Nerve, 50 mg/kg BID, Day 15
[6] = Vitreous Humor, 50 mg/kg BID, Day 15
[7] = male, Dutch Belted, po, Choroid-RPE, 50 mg/kg BID, Day 15
[8] = male, Dutch Belted, po, Iris-Ciliary Body, 50 mg/kg BID, Day 15

CC(=O)c1nn(CC(=O)N2C[C@H](F)C[C@H]2C(=O)Nc2cccc(Br)n2)c2ccc(-c3cnc(C)nc3)cc12 [Compound 1, (2S,4R)-1-(2-(3-Acetyl-5-(2-methylpyrimidin-5-yl)-1H-indazol-1-yl)acetyl)-N-(6-bromopyridin-2-yl)-4-fluoropyrrolidine-2-carboxamide]
Concentration of radioactivity at Tmax, non-pigmented skin [1]: 2.98 μg equiv/g | Concentration of radioactivity at Tmax, uvea of the non-pigmented eye [1]: 1.68 μg equiv/g | Highest concentration of radioactivity in blood ([1]; 1 h post-dose): 2.77 μg equiv/g | Concentration of radioactivity, uvea of the non-pigmented eye ([1]; 24 h): BQL | Concentration of radioactivity, non-pigmented skin ([1]; 168 h): BQL | AUC(0-t) [2, 3]: 274000 ng·h/g | AUC(0-∞) [2, 3]: 292000 ng·h/g | Tlast [2, 3]: 240 h | Optic nerve concentration after 24 hours post-dose (non-detectable) ([2]; 50 mg/kg BID for 14 days): < 1.0 ng/mL | Plasma concentration after 24 hours post-dose (non-detectable) ([2]; 50 mg/kg BID for 14 days): < 1.0 ng/mL | Vitreous humor concentration after 24 hours post-dose (non-detectable) ([2]; 50 mg/kg BID for 14 days): < 1.0 ng/mL | Mean Choroid-RPE concentration ([2]; Day 15, 0 h): 3918 ± 950 ng/g | Mean Iris-Ciliary Body concentration ([2]; Day 15, 0 h): 5076 ± 586 ng/g | Mean plasma concentration ([2]; Day 15, 0 h): 104 ± 68 ng/mL | Mean retina concentration ([2]; Day 15, 0 h): 159 ± 87.9 ng/g | Mean Choroid-RPE concentration ([2]; Day 15, 1 h): 8025 ± 2350 ng/g | Mean Iris-Ciliary Body concentration ([2]; Day 15, 1 h): 11475 ± 2022 ng/g | Mean plasma concentration ([2]; Day 15, 1 h): 2895 ± 884 ng/mL | Mean retina concentration ([2]; Day 15, 1 h): 2122 ± 376 ng/g | Mean Choroid-RPE concentration ([2]; Day 15, 6 h): 4373 ± 1586 ng/g | Mean Iris-Ciliary Body concentration ([2]; Day 15, 6 h): 8822 ± 2621 ng/g | Mean plasma concentration ([2]; Day 15, 6 h): 321 ± 70.0 ng/mL | Mean retina concentration ([2]; Day 15, 6 h): 725 ± 117 ng/g | Mean Choroid-RPE concentration ([2]; Day 15, 24 h): 2097 ± 273 ng/g | Mean Iris-Ciliary Body concentration ([2]; Day 15, 24 h): 5556 ± 2128 ng/g | Mean plasma concentration ([2]; Day 15, 24 h): 39.9 ± 4.45 ng/mL | Mean retina concentration ([2]; Day 15, 24 h): 265 ± 113 ng/g | Optic Nerve concentration ([2]; Day 15, 96 h): BLQ^b | Vitreous concentration ([2]; Day 15, 96 h): BLQ^c | Mean Choroid-RPE concentration ([2]; Day 15, 96 h): 873 ± 392 ng/g | Mean Iris-Ciliary Body concentration ([2]; Day 15, 96 h): 2837 ± 1136 ng/g | Mean plasma concentration ([2]; Day 15, 96 h): BLQ^a and BLQ | Mean retina concentration ([2]; Day 15, 96 h): 32.3 ± 24.2 ng/g | Optic Nerve concentration ([2]; Day 15, 168 h): BLQ^b | Vitreous concentration ([2]; Day 15, 168 h): BLQ^c | Mean Choroid-RPE concentration ([2]; Day 15, 168 h): 645 ± 67.2 ng/g | Mean Iris-Ciliary Body concentration ([2]; Day 15, 168 h): 2292 ± 445 ng/g | Mean plasma concentration ([2]; Day 15, 168 h): BLQ^a and BLQ | Mean retina concentration ([2]; Day 15, 168 h): 54.9 ± 7.28 ng/g | Optic Nerve concentration ([2]; Day 15, 240 h): BLQ^b | Vitreous concentration ([2]; Day 15, 240 h): BLQ^c | Mean Choroid-RPE concentration ([2]; Day 15, 240 h): 195 ± 41.5 ng/g | Mean Iris-Ciliary Body concentration ([2]; Day 15, 240 h): 1624 ± 1275 ng/g | Mean plasma concentration ([2]; Day 15, 240 h): BLQ^a and BLQ | Mean retina concentration ([2]; Day 15, 240 h): 39.4 ± 20.1 ng/g | AUC(0-t) [2, 4]: 801000 ng·h/g | AUC(0-∞) [2, 4]: 1220000 ng·h/g | Tlast [2, 4]: 240 h | AUC(0-t) [2, 5]: 4880 ng·h/g | AUC(0-∞) [2, 5]: 5180 ng·h/g | AUC(0-t) ([2]; Retina, 50 mg/kg BID, Day 15): 30300 ng·h/g | AUC(0-∞) ([2]; Retina, 50 mg/kg BID, Day 15): 35700 ng·h/g | Tlast ([2]; Retina, 50 mg/kg BID, Day 15): 240 h | AUC(0-t) [2, 6]: 419 ng·h/g | AUC(0-∞) [2, 6]: 442 ng·h/g | Tlast [2, 6]: 24 h | Cmax [2, 7]: 8020 ng/g | MRT last [2, 7]: 68.6 h | Tmax [2, 7]: 1 h | half-life [2, 7]: 66.4 h | Cmax [2, 8]: 11500 ng/g | MRT inf [2, 8]: 138 h | MRT last [2, 8]: 88 h | Tmax [2, 8]: 1 h
